The text below walks through data of patent US20220041606A1, “POSITIVE ALLOSTERIC MODULATORS OF THE MUSCARINIC ACETYLCHOLINE RECEPTOR M1” (Vanderbilt University, priority 2020, published 2022).

Bounds are passed on as bounds.

In experiment [1] the target is T1, human mAChR M1 (Homo sapiens, UniProt P11229).
T1 construct: host or cells: CHO-K1 cells (ATCC), stably transfected using Lipofectamine2000
T1 sequence (P11229 1-460): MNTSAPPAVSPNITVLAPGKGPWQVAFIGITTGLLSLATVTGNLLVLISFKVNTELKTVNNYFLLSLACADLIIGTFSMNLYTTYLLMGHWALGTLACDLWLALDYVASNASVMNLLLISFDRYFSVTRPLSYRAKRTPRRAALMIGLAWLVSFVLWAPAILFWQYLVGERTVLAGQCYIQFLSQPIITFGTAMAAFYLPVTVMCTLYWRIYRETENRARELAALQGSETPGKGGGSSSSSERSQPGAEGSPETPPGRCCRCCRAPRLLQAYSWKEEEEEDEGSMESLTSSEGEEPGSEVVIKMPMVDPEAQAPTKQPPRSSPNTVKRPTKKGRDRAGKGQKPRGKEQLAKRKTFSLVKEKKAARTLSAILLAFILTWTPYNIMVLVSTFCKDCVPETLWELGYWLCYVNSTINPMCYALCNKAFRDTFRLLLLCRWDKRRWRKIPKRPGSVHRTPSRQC
The experiment in a line: mAChR M1 cell-based functional assay (calcium mobilization), PAM activity: increase in the EC20 acetylcholine response. Conditions: CHO-K1 cells expressing hM1; potentiation of EC20 acetylcholine response. Put shortly: (§1)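 Fluorescence ratio calcium read-out (Fluo-4 AM, FDSS 6000) in human M1-expressing CHO-K1 cells. Agonist activity taken as concentration-dependent rise after compound addition; potentiation as enhancement of a subsequent EC20 acetylcholine challenge. Curves from 11-point threefold dilutions fitted by four-parameter logistic; Emax expressed versus acetylcholine maximum.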

Experiment [2] deals with T1, human mAChR M1. The experiment in a line: mAChR M1 cell-based functional assay (calcium mobilization), agonist activity upon compound addition. Conditions: CHO-K1 cells expressing hM1; for EC50: compound alone, before acetylcholine addition; for Emax: relative to the maximum for acetylcholine. Put shortly:
as §1

As a reminder, the EC50 is the concentration giving half of the maximal effect. A word on the Emax: it is the size of the effect at its maximum, as opposed to the concentration needed.

`Cn1nccc1-c1ccc(Cn2cc(C(=O)N[C@H]3CCOC[C@@H]3O)c3nccn3c2=O)c(F)c1` [Compound B31, 6-(2-fluoro-4-(1-methyl-1H-pyrazol-5-yl)benzyl)-N-((3R,4S)-3-hydroxytetrahydro-2H-pyran-4-yl)-5-oxo-5,6-dihydroimidazo[1,2-c]pyrimidine-8-carboxamide]: the EC50 at human mAChR M1 [1] is 1.13 µM; at human mAChR M1 [2] it was more than 10 µM. For the same molecule, the Emax amounted to 82% on human mAChR M1 [1] and 6% on human mAChR M1 [2].
The corresponding values for `Cc1cn2c(=O)n(Cc3c(F)cc(-c4cccc5nn(C)cc45)cc3F)cc(C(=O)N[C@H]3CCOC[C@@H]3O)c2n1` [Compound B29, 6-(2,6-difluoro-4-(2-methyl-2H-indazol-4-yl)benzyl)-N-((3R,4S)-3-hydroxytetrahydro-2H-pyran-4-yl)-2-methyl-5-oxo-5,6-dihydroimidazo[1,2-c]pyrimidine-8-carboxamide] are 4.31 µM, more than 10 µM, 40% and less than 5%.
In the case of `Cn1cc2c(-c3cc(F)c(Cn4cc(C(=O)N[C@H]5CCOC[C@@H]5O)c5ncn(C)c5c4=O)c(F)c3)cccc2n1` [Compound C4, 5-(2,6-difluoro-4-(2-methyl-2H-indazol-4-yl)benzyl)-N-((3R,4S)-3-hydroxytetrahydro-2H-pyran-4-yl)-3-methyl-4-oxo-4,5-dihydro-3H-imidazo[4,5-c]pyridine-7-carboxamide], at human mAChR M1 [1], the EC50 amounted to 0.31 µM and the Emax stood at 58%. For the same molecule, at human mAChR M1 [2], the EC50 is more than 10 µM and the Emax was less than 5%.
`Cn1ccc(-c2ccc(Cn3cc(C(=O)N[C@H]4CCC[C@@H]4O)c4ncccc4c3=O)c(F)c2)n1` [Compound A3, 6-(2-fluoro-4-(1-methyl-1H-pyrazol-3-yl)benzyl)-N-((1S,2S)-2-hydroxycyclopentyl)-5-oxo-5,6-dihydro-1,6-naphthyridine-8-carboxamide]: on human mAChR M1 [1], the EC50 worked out at 1.66 µM and the Emax came out at 83%. On human mAChR M1 [2], the EC50 is more than 10 µM and the Emax is less than 5%.
With `Cn1cc2c(-c3cc(F)c(Cn4cc(C(=O)N[C@@H]5CC[C@H]5O)c5occc5c4=O)c(F)c3)cccc2n1` (stereo in doubt) [Compound D21, 5-(2,6-difluoro-4-(2-methyl-2H-indazol-4-yl)benzyl)-N-((1R,2R)-2-hydroxycyclobutyl)-4-oxo-4,5-dihydrofuro[3,2-c]pyridine-7-carboxamide], the EC50 is 2.19 µM on human mAChR M1 [1] and more than 10 µM on human mAChR M1 [2]. For the same molecule, the Emax at human mAChR M1 [1] was 75%; on human mAChR M1 [2], less than 5%.
As to `Cn1ccc(-c2ccc(Cn3cc(C(=O)N[C@H]4CCOC[C@@H]4O)c4occc4c3=O)c(F)c2)n1` [Compound D6, 5-(2-fluoro-4-(1-methyl-1H-pyrazol-3-yl)benzyl)-N-((3R,4S)-3-hydroxytetrahydro-2H-pyran-4-yl)-4-oxo-4,5-dihydrofuro[3,2-c]pyridine-7-carboxamide], on human mAChR M1 [1], the EC50 was more than 10 µM and the Emax was found to be 68%. At human mAChR M1 [2], the EC50 was more than 10 µM and the maximal effect (Emax) was less than 5%.
For `O=C(N[C@H]1CCCCC[C@@H]1O)c1cn(Cc2ccc(-n3cccn3)cc2)c(=O)c2nccnc12` [Compound A62, 6-(4-(1H-pyrazol-1-yl)benzyl)-N-((1S,2S)-2-hydroxycycloheptyl)-5-oxo-5,6-dihydropyrido[3,4-b]pyrazine-8-carboxamide], at human mAChR M1 [1], the EC50 is not below 10 µM and the Emax is 53%. Further, on human mAChR M1 [2], the EC50 was more than 10 µM and the Emax was less than 5%.
`Cn1cc2c(-c3cc(F)c(Cn4cc(C(=O)N[C@H]5CCCC[C@@H]5O)c5occc5c4=O)c(F)c3)cccc2n1` [Compound D19, 5-(2,6-difluoro-4-(2-methyl-2H-indazol-4-yl)benzyl)-N-((1S,2S)-2-hydroxycyclohexyl)-4-oxo-4,5-dihydrofuro[3,2-c]pyridine-7-carboxamide]: on human mAChR M1 [1], the EC50 stood at 0.43 µM and the Emax was 82%. Further, on human mAChR M1 [2], the EC50 is more than 10 µM and the Emax stood at 9%.
The corresponding values for `Cn1cc(-c2ccc(Cn3cc(C(=O)NCC(O)C(F)(F)F)c4nccnc4c3=O)c(F)c2)cn1` (stereo not drawn) [Compound A81, 6-(2-fluoro-4-(1-methyl-1H-pyrazol-4-yl)benzyl)-5-oxo-N-(3,3,3-trifluoro-2-hydroxypropyl)-5,6-dihydropyrido[3,4-b]pyrazine-8-carboxamide] are not below 10 µM, 33%, more than 10 µM and less than 5%.
Take `O=C(N[C@H]1CCOC[C@@H]1O)c1cn(Cc2ccc(-n3cccn3)cc2)c(=O)c2ccoc12` [Compound D2, 5-(4-(1H-pyrazol-1-yl)benzyl)-N-((3R,4S)-3-hydroxytetrahydro-2H-pyran-4-yl)-4-oxo-4,5-dihydrofuro[3,2-c]pyridine-7-carboxamide]: the EC50 on human mAChR M1 [1] and at human mAChR M1 [2] was more than 10 µM in each case. Also, the Emax was 57% at human mAChR M1 [1] and less than 5% on human mAChR M1 [2].
`Cn1cc(-c2ccc(Cn3cc(C(=O)NC4CCOCC4)c4ncccc4c3=O)c(F)c2)cn1` [Compound A10, 6-(2-fluoro-4-(1-methyl-1H-pyrazol-4-yl)benzyl)-5-oxo-N-(tetrahydro-2H-pyran-4-yl)-5,6-dihydro-1,6-naphthyridine-8-carboxamide]: at human mAChR M1 [1], the EC50 is not below 10 µM and the Emax turned out to be 59%. Besides, on human mAChR M1 [2], the EC50 is more than 10 µM and the Emax is less than 5%.
On to `Cn1cc(-c2ccc(Cn3cc(C(=O)N[C@H]4CCCCC[C@@H]4O)c4ncccc4c3=O)cc2)cn1` [Compound A87, N-((1S,2S)-2-hydroxycycloheptyl)-6-(4-(1-methyl-1H-pyrazol-4-yl)benzyl)-5-oxo-5,6-dihydro-1,6-naphthyridine-8-carboxamide], for which, on human mAChR M1 [1], the EC50 was found to be 0.82 µM and the Emax stood at 44%. Besides, at human mAChR M1 [2], the EC50 was more than 10 µM and the Emax is less than 5%.
As for `Cn1cc2c(-c3cc(F)c(Cn4cc(C(=O)N[C@H]5CC[C@@H]5O)c5nccnc5c4=O)c(F)c3)cccc2n1` [Compound A69, 6-(2,6-difluoro-4-(2-methyl-2H-indazol-4-yl)benzyl)-N-((1S,2S)-2-hydroxycyclobutyl)-5-oxo-5,6-dihydropyrido[3,4-b]pyrazine-8-carboxamide], on human mAChR M1 [1], the EC50 was determined as 3.89 µM and the Emax is 57%. Moreover, on human mAChR M1 [2], the EC50 is more than 10 µM and the Emax was less than 5%.
As for `O=C(N[C@H]1CCOC[C@@H]1O)c1cn(Cc2ccc(-n3cccn3)cc2)c(=O)c2nccnc12` [Compound A56, 6-(4-(1H-pyrazol-1-yl)benzyl)-N-((3R,4S)-3-hydroxytetrahydro-2H-pyran-4-yl)-5-oxo-5,6-dihydropyrido[3,4-b]pyrazine-8-carboxamide], on human mAChR M1 [1], the EC50 is not below 10 µM and the Emax worked out at 61%. Besides, at human mAChR M1 [2], the half-maximal effective concentration (EC50) is more than 10 µM and the Emax is less than 5%.
As to `O=C(N[C@H]1CCC[C@@H]1O)c1cn(Cc2ccc(-n3cccn3)cc2)c(=O)c2cccnc12` [Compound A14, 6-(4-(1H-pyrazol-1-yl)benzyl)-N-((1S,2S)-2-hydroxycyclopentyl)-5-oxo-5,6-dihydro-1,6-naphthyridine-8-carboxamide], at human mAChR M1 [1], the EC50 was 7.78 µM and the Emax is 64%. Further, on human mAChR M1 [2], the EC50 is more than 10 µM and the Emax is less than 5%.
With `Cn1cc2c(-c3cc(F)c(Cn4cc(C(=O)N[C@H]5CCOC[C@@H]5O)c5occc5c4=O)c(F)c3)cccc2n1` [Compound D18, 5-(2,6-Difluoro-4-(2-methyl-2H-indazol-4-yl)benzyl)-N-((3R,4S)-3-hydroxytetrahydro-2H-pyran-4-yl)-4-oxo-4,5-dihydrofuro[3,2-c]pyridine-7-carboxamide], on human mAChR M1 [1], the concentration for a half-maximal effect (EC50) worked out at 0.28 µM and the Emax was 85%. Further, at human mAChR M1 [2], the EC50 worked out at 2.27 µM and the Emax turned out to be 11%.
On to `O=C(N[C@H]1CCOC[C@@H]1O)c1cn(Cc2ccc(-n3cccn3)cc2)c(=O)n2ccnc12` [Compound B12, 6-(4-(1H-Pyrazol-1-yl)benzyl)-N-((3R,4S)-3-hydroxytetrahydro-2H-pyran-4-yl)-5-oxo-5,6-dihydroimidazo[1,2-c]pyrimidine-8-carboxamide], for which, on human mAChR M1 [1], the EC50 stood at 0.38 µM and the Emax is 67%. At human mAChR M1 [2], the EC50 stood at 6.02 µM and the Emax was 55%.
The corresponding values for `Cc1ccc(-c2cc(F)c(Cn3cc(C(=O)N[C@H]4CCCC[C@@H]4O)c4ncccc4c3=O)c(F)c2)cn1` [Compound A35, 6-(2,6-difluoro-4-(6-methylpyridin-3-yl)benzyl)-N-((1S,2S)-2-hydroxycyclohexyl)-5-oxo-5,6-dihydro-1,6-naphthyridine-8-carboxamide] are 0.55 µM, 48%, more than 10 µM and less than 5%.
